This is an account of results in publication PMC10367051, “Comprehensive Mechanistic View of the Hydrolysis of Oxadiazole-Based Inhibitors by Histone Deacetylase 6 (HDAC6)” (ACS Chemical Biology, 2023).

The term IC50 denotes the concentration needed to halve the response being measured. A high value points to weaker potency.

What all share (format): biochemical
One test deals with T1, HDAC1 (Homo sapiens, UniProt Q13547).
T1 construct: made in house; host or cells: HEK293/T17
Description: Fluorometric HDAC inhibition assay, HDAC1. To be noted: purified human protein; Ac-Gly-Ala-[Lys-Ac]-AMC substrate 10 μM; 15 min preincubation. The procedure: (§1) Large-scale expression of recombinant human HDACs was carried out as described previously.[32],[37] Briefly, HEK293/T17 cells were transiently transfected with expression pMM222 plasmids comprising N-terminally tagged (TwinStrep-FLAG-HALO tag; Figure S1) HDAC genes using linear poly(ethyleneimine) (PEI, Polysciences Inc.). Cells were harvested three days post-transfection, and cell pellets were resuspended in the lysis buffer (100 mM Tris-HCl, 10 mM NaCl, 5 mM KCl, 2 mM MgCl2, and 10% glycerol at pH 8.0). Cells were disrupted by sonication, cell lysates were cleared by centrifugation, and soluble fusion proteins were first purified by Streptactin affinity chromatography (IBA). For all HDACs but HDACs 1, 10, and 11, the N-terminal tag was cleaved off overnight by the addition of TEV protease (10:1 HDAC/TEV ratio). Size-exclusion chromatography on a Superose 6 column (GE Healthcare Bio-Sciences; running buffer 30 mM HEPES, 140 mM NaCl, 10 mM KCl, 3% glycerol, and 0.25 mM TCEP) was used as the final purification step for all HDAC constructs.
(§2) Optimized fluorometric assays were used to determine inhibition constants of studied compounds against individual HDAC isoforms as described previously.[32] Briefly, reactions were performed in the activity buffer comprising 50 mM HEPES, 140 mM NaCl, and 10 mM KCl at pH 7.4 supplemented with 1 mg mL^–1 bovine serum albumin (BSA), 1 mM tris(2-carboxyethyl)phosphine (TCEP), 10 μM substrates, and optimized concentrations of HDACs. The Ac-Gly-Ala-[Lys-Ac]-7-amino-methylcoumarylamide (AMC) substrate was used to profile HDACs 1, 2, 3, and 6; Boc-[Lys-TFA]-7-amino-methylcoumarylamide was used for HDACs 4, 5, 7, 8, and 9 (both substrates: Bachem); fluorescein-labeled N8-acetylspermidine was used for HDAC10;[32] and an internally quenched TNFα-derived peptide derivative was used for HDAC11.[39] Deacetylation reactions were monitored either by high-performance liquid chromatography (HPLC) (HDAC10) or by quantification of released AMC (λex/λem = 365/440 nm) using a CLARIOstar plate reader (BMG Labtech GmbH).

For another test, the target named is T2, HDAC5 (Homo sapiens, UniProt Q9UQL6).
T2 construct: TwinStrep-FLAG-HALO (N, cleaved yes); made in house; host or cells: HEK293/T17
In words: Fluorometric HDAC inhibition assay, HDAC5. To be noted: purified human protein; Boc-[Lys-TFA]-AMC substrate 10 μM; 15 min preincubation. On the procedure: as §1, §2

For a further test, the target named is T3, HDAC6 (Homo sapiens, UniProt Q9UBN7).
T3 construct: TwinStrep-FLAG-HALO (N, cleaved yes); made in house; host or cells: HEK293/T17
T3 sequence (Q9UBN7 1-1215): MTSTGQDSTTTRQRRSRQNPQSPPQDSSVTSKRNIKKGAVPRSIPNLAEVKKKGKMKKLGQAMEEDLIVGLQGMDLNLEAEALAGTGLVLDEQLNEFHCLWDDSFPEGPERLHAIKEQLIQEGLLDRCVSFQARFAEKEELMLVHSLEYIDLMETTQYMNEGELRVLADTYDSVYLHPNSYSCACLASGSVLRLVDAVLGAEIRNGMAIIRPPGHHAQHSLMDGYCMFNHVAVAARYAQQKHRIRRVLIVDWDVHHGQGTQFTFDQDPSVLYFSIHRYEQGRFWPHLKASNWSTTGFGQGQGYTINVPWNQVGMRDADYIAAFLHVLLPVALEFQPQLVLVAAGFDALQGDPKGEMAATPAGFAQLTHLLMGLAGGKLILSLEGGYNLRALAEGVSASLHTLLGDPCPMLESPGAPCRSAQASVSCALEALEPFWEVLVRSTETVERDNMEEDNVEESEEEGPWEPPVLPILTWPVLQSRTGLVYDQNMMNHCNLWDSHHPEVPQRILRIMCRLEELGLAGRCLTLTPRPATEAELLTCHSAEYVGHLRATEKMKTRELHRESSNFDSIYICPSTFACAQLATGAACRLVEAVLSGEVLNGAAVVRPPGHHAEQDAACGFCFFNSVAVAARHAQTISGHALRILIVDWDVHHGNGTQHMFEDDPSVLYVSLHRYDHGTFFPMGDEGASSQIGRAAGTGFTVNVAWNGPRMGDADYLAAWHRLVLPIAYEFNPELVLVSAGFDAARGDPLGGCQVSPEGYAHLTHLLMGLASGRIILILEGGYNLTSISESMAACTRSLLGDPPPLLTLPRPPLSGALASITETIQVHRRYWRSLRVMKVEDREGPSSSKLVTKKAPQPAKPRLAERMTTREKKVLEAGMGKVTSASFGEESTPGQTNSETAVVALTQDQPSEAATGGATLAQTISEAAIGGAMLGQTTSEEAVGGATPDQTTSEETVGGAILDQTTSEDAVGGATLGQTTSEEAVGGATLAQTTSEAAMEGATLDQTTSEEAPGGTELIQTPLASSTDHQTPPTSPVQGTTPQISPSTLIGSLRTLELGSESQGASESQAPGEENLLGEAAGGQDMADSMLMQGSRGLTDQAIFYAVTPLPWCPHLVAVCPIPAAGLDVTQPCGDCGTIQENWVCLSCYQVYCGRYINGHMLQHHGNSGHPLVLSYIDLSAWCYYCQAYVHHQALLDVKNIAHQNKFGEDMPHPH
Description: Fluorometric HDAC inhibition assay, HDAC6. The following applies: for fold more potent compared to the hydrazide product 4: HDAC6 potency ratio; for IC50: purified human protein, Ac-Gly-Ala-[Lys-Ac]-AMC substrate 10 μM, 15 min preincubation. On the procedure:
as §1, §2

A further test addresses T4, HDAC11 (Homo sapiens, UniProt Q96DB2).
T4 construct: made in house; host or cells: HEK293/T17
T4 sequence (Q96DB2 1-347): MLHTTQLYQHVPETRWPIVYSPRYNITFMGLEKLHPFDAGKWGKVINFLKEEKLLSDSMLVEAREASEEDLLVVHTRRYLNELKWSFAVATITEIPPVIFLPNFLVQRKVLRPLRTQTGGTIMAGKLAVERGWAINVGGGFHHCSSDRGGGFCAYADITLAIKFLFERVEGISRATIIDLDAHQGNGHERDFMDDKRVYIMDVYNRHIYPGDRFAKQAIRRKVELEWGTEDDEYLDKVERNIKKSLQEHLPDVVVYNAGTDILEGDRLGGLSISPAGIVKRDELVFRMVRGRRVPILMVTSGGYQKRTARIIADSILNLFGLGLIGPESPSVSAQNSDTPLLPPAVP
Description: HDAC11 inhibition assay (internally quenched peptide). The following applies: purified human protein; internally quenched TNFα-derived peptide substrate; 15 min preincubation. On the procedure: as §1, §2

T2 sequence (Q9UQL6 whole entry): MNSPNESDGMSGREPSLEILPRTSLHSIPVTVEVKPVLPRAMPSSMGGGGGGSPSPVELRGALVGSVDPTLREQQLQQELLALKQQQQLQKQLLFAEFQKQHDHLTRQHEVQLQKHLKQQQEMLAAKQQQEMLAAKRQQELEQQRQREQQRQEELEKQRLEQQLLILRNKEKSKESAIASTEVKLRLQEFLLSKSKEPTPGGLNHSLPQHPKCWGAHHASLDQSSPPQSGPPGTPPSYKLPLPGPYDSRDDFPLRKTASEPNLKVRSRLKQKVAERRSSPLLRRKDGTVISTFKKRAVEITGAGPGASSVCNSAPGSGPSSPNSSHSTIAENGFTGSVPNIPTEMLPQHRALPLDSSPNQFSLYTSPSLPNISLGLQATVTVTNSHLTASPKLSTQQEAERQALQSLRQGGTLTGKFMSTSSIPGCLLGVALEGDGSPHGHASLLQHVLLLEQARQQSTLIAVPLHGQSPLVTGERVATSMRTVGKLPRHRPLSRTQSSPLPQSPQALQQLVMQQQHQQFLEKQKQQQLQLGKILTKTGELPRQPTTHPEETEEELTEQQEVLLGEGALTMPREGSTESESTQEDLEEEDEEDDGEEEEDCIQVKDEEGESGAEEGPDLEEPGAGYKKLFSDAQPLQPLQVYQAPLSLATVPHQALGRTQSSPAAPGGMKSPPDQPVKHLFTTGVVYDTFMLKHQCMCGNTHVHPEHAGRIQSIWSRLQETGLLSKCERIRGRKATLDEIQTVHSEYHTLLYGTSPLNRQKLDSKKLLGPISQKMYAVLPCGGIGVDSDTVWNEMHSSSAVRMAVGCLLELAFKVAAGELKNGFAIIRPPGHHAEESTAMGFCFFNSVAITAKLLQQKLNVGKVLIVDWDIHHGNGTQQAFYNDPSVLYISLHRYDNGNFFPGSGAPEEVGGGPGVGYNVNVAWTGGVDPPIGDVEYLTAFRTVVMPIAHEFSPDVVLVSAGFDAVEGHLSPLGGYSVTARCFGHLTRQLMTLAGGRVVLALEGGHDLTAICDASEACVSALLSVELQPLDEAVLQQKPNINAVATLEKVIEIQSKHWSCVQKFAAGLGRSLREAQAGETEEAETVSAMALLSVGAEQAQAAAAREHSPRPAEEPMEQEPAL
T1 sequence (Q13547 whole entry): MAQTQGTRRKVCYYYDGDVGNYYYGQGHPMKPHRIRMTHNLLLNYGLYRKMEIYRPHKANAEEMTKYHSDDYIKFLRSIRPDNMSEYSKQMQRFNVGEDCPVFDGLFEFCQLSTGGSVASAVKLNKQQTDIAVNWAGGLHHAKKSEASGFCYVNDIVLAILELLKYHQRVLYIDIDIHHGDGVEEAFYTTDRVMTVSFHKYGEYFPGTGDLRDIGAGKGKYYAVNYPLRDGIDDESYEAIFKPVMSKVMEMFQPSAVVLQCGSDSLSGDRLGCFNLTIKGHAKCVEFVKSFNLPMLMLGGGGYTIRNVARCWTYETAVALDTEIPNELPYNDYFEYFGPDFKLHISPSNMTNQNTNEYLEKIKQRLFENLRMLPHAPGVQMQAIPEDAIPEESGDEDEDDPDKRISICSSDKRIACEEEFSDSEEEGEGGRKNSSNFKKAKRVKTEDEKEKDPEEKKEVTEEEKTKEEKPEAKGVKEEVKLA

On to `CS(=O)(=O)N(Cc1ccc(-c2nnc(C(F)F)o2)cn1)c1cccc(Cl)c1` [compound 8], for which the IC50 on HDAC1, against HDAC5 and on HDAC11 was over 20 µM each time. Further, the “fold more potent compared to the hydrazide product 4” value on HDAC6 is “approximately 1000 fold”.

On to `CS(=O)(=O)N(Cc1ccc(-c2nnc(C(F)(F)F)o2)cn1)c1cccc(Cl)c1` [compound 7], for which the concentration for half-maximal inhibition (IC50) at HDAC1 was over 20 µM; at HDAC5, over 20 µM; on HDAC6, 0.0146 ± 0.008 µM; against HDAC11 it was over 20 µM. The “fold more potent compared to the hydrazide product 4” value at HDAC6 was about 150 fold.

Regarding `CS(=O)(=O)N(Cc1ccc(C(=O)NN)cn1)c1cccc(Cl)c1` [compound 4], the IC50 is over 20 µM against HDAC1, over 20 µM against HDAC5, 2.16 ± 0.392 µM on HDAC6 and over 20 µM against HDAC11.

As to `CS(=O)(=O)N(Cc1ccc(C(=O)NNC(=O)C(F)(F)F)cn1)c1cccc(Cl)c1` [compound 5], the half-inhibitory concentration (IC50) was 9.17 µM at HDAC1 and 10.8 µM on HDAC6.

On to `CS(=O)(=O)N(Cc1ccc(C(=O)NNC(=O)C(F)F)cn1)c1cccc(Cl)c1` [compound 6], for which the concentration for half-maximal inhibition (IC50) against HDAC1 was over 20 µM; against HDAC6, 14.5 µM.
